From patent publication US12202805B2, “Process for preparing (5S)-{[2-(4-carboxyphenyl)ethyl] |2-(2-{|3-chloro-4'-(trifluoromethyl)biphenyl-4-yl]methoxy}phenyl)ethyl]aminol-5,6,7,8-tetrahydroquinoline-2-carboxylic acid and its crystalline forms for use as pharmaceutically active compound” (Bayer Aktiengesellschaft, priority 2021, dated 2025)
Several values for one entry are separate records, joined by “and”; a condition that tells them apart may be missing. Identical values can stand only once.

Test system: thromboxane A2 challenged PAH-minipig
Assay: Haemodynamics in the anesthetized thromboxane challenged minipig, intratracheal dry powder (PAP, BP)
Assay type: in vivo, Göttingen Minipigs
Conditions: for BP (absolute values) / PAP (absolute values): lactose vehicle first, test powder 1.5 mg/4 kg i.t. @90 min, each animal (n=3); for % changes vs. baseline on PAP: baseline 100.0 at 80 min, i.t. dry powder, each animal
Procedure: Healthy Göttingen Minipigs® Ellegaard (Ellegaard, Denmark) of both sexes and having a weight of 2-6 kg were used. The animals were sedated by i.m. administration of about 25 mg/kg ketamine and about 10 mg/kg azaperone. Anaesthesia was initiated by i.v. administration of about 2 mg/kg ketamine and about 0.3 mg/kg midazolam. Maintenance of anaesthesia was by i.v. administration of about 7.5-30 mg/kg/h ketamine and about 1-4 mg/kg/h midazolam (rate of infusion 1-4 ml/kg/h) and about 150 μg/kg/h pancuronium bromide (for example Pancuronium-Actavis). After intubation, the animals were ventilated by the ventilator at a constant respiratory volume (10-12 ml/kg, 35 breaths/min; Avea®, Viasys Healthcare, USA, or Engström Carestation, GE Healthcare, Freiburg, Germany) such that an end-tidal CO2 concentration of about 5% was achieved. Ventilation was performed with room air, enriched with about 40% oxygen (normoxia). For the measurement of the haemodynamic parameters such as pulmonary arterial pressure (PAP), blood pressure (BP) and heart rate (HR), catheters were inserted into the carotid artery to measure the blood pressure, and a Swan-Ganz® catheter was introduced in a flow-directed manner via the jugular vein into the pulmonary artery. The haemodynamic signals were recorded and evaluated by means of pressure transducers (Combitransducer, B. Braun, Melsungen, Germany)/amplifiers and Ponemah® as data acquisition software.
As reference pure Lactose vehicle was applied in the beginning of each experiment.

[1] = time 150 min, listed as ex. 6e, sesquihydrate
[2] = time 160 min, listed as ex. 6e, sesquihydrate
[3] = time 170 min, listed as ex. 6e, sesquihydrate
[4] = time 180 min, listed as ex. 6e, sesquihydrate
[5] = time 190 min, listed as ex. 6e, sesquihydrate
[6] = time 200 min, listed as ex. 6e, sesquihydrate
[7] = time 210 min, listed as ex. 6e, sesquihydrate
[8] = time 220 min, listed as ex. 6e, sesquihydrate
[9] = time 230 min, listed as ex. 6e, sesquihydrate
[10] = time 240 min, listed as ex. 6e, sesquihydrate
[11] = time 250 min, listed as ex. 6e, sesquihydrate
[12] = time 260 min, listed as ex. 6e, sesquihydrate
[13] = time 270 min, listed as ex. 6e, sesquihydrate
[14] = time 280 min, listed as ex. 6e, sesquihydrate
[15] = time 290 min, listed as ex. 6e, sesquihydrate
[16] = time 300 min, listed as ex. 6e, sesquihydrate
[17] = time 310 min, listed as ex. 6e, sesquihydrate
[18] = time not given, 1st row after 310 min, listed as ex. 6e, sesquihydrate
[19] = time not given, 2nd row after 310 min, listed as ex. 6e, sesquihydrate
[20] = time −10 min, 375 μg/kg i.t., sesquihydrate

O.O.O.O=C(O)c1ccc(CCN(CCc2ccccc2OCc2ccc(-c3ccc(C(F)(F)F)cc3)cc2Cl)[C@H]2CCCc3nc(C(=O)O)ccc32)cc1.O=C(O)c1ccc(CCN(CCc2ccccc2OCc2ccc(-c3ccc(C(F)(F)F)cc3)cc2Cl)[C@H]2CCCc3nc(C(=O)O)ccc32)cc1 [example 6e, (5S)—{[2-(4-Carboxyphenyl)ethyl][2-(2-{[3-chloro-4′-(trifluoromethyl)biphenyl-4-yl]methoxy}phenyl)-ethyl]amino}-5,6,7,8-tetrahydroquinoline-2-carboxylic acid sesquihydrate]
BP (absolute values) (time 150 min): 99 mmHg
BP (absolute values) [1]: 121 mmHg and 114 mmHg
PAP (absolute values) [1]: 30.3 mmHg and 29.0 mmHg and 26.6 mmHg
% changes vs. baseline on PAP (time 160 min, sesquihydrate): 71.0% and 79.5% and 65.9%
BP (absolute values) (time 160 min): 100 mmHg
BP (absolute values) [2]: 122 mmHg and 114 mmHg
PAP (absolute values) [2]: 29.0 mmHg and 30.3 mmHg and 26.9 mmHg
% changes vs. baseline on PAP (time 170 min, sesquihydrate): 68.5% and 74.3% and 61.5%
BP (absolute values) [3]: 101 mmHg and 121 mmHg and 115 mmHg
PAP (absolute values) [3]: 28.0 mmHg and 28.3 mmHg and 25.1 mmHg
% changes vs. baseline on PAP (time 180 min, sesquihydrate): 63.2% and 80.8% and 62.0%
BP (absolute values) (time 180 min): 99 mmHg
BP (absolute values) [4]: 119 mmHg and 115 mmHg
PAP (absolute values) [4]: 25.8 mmHg and 30.8 mmHg and 25.3 mmHg
% changes vs. baseline on PAP (time 190 min, sesquihydrate): 61.5% and 80.8% and 58.6%
BP (absolute values) (time 190 min): 99 mmHg
BP (absolute values) [5]: 123 mmHg and 114 mmHg
PAP (absolute values) [5]: 30.8 mmHg and 23.9 mmHg
% changes vs. baseline on PAP (time 200 min, sesquihydrate): 62.3% and 80.3% and 60.2%
BP (absolute values) (time 200 min): 98 mmHg
BP (absolute values) [6]: 116 mmHg and 113 mmHg
PAP (absolute values) [6]: 25.5 mmHg and 30.6 mmHg and 24.6 mmHg
% changes vs. baseline on PAP (time 210 min, sesquihydrate): 61.0% and 80.7% and 59.4%
BP (absolute values) (time 210 min): 99 mmHg
BP (absolute values) [7]: 117 mmHg and 116 mmHg
PAP (absolute values) [7]: 25.0 mmHg and 30.8 mmHg and 24.2 mmHg
% changes vs. baseline on PAP (time 220 min, sesquihydrate): 59.5% and 86.3% and 57.8%
BP (absolute values) (time 220 min): 97 mmHg
BP (absolute values) [8]: 123 mmHg and 114 mmHg
PAP (absolute values) [8]: 24.3 mmHg and 32.9 mmHg and 23.6 mmHg
% changes vs. baseline on PAP (time 230 min, sesquihydrate): 58.6% and 82.6% and 57.8%
BP (absolute values) (time 230 min): 97 mmHg
BP (absolute values) [9]: 119 mmHg and 114 mmHg
PAP (absolute values) [9]: 24.0 mmHg and 31.5 mmHg and 23.6 mmHg
% changes vs. baseline on PAP (time 240 min, sesquihydrate): 59.3% and 81.5% and 57.6%
BP (absolute values) (time 240 min): 97 mmHg
BP (absolute values) [10]: 119 mmHg and 112 mmHg
PAP (absolute values) [10]: 24.3 mmHg and 31.0 mmHg and 23.5 mmHg
% changes vs. baseline on PAP (time 250 min, sesquihydrate): 59.3% and 82.2% and 56.1%
BP (absolute values) (time 250 min): 97 mmHg
BP (absolute values) [11]: 118 mmHg and 111 mmHg
PAP (absolute values) [11]: 24.2 mmHg and 31.3 mmHg and 22.9 mmHg
% changes vs. baseline on PAP (time 260 min, sesquihydrate): 58.8% and 82.7% and 57.6%
BP (absolute values) (time 260 min): 96 mmHg
BP (absolute values) [12]: 116 mmHg and 112 mmHg
PAP (absolute values) [12]: 24.0 mmHg and 31.5 mmHg and 23.5 mmHg
% changes vs. baseline on PAP (time 270 min, sesquihydrate): 59.9% and 78.3% and 55.4%
BP (absolute values) (time 270 min): 99 mmHg
BP (absolute values) [13]: 115 mmHg and 109 mmHg
PAP (absolute values) [13]: 24.5 mmHg and 29.8 mmHg and 22.6 mmHg
% changes vs. baseline on PAP (time 280 min, sesquihydrate): 58.4% and 78.3% and 55.9%
BP (absolute values) [14]: 97 mmHg and 111 mmHg and 110 mmHg
PAP (absolute values) [14]: 23.9 mmHg and 29.8 mmHg and 22.8 mmHg
% changes vs. baseline on PAP (time 290 min, sesquihydrate): 57.4% and 79.6% and 53.9%
BP (absolute values) [15]: 97 mmHg and 110 mmHg and 107 mmHg
PAP (absolute values) [15]: 23.5 mmHg and 30.3 mmHg and 22.0 mmHg
% changes vs. baseline on PAP (time 300 min, sesquihydrate): 60.1% and 78.7% and 54.5%
BP (absolute values) (time 300 min): 98 mmHg
BP (absolute values) [16]: 109 mmHg and 108 mmHg
PAP (absolute values) [16]: 24.6 mmHg and 30.0 mmHg and 22.2 mmHg
% changes vs. baseline on PAP (time 310 min, sesquihydrate): 58.4% and 77.6% and 53.7%
BP (absolute values) (time 310 min): 97 mmHg
BP (absolute values) [17]: 109 mmHg and 105 mmHg
PAP (absolute values) [17]: 23.9 mmHg and 29.6 mmHg and 21.9 mmHg
% changes vs. baseline on PAP (time 320 min, sesquihydrate): 61.8% and 76.3% and 55.1%
% changes vs. baseline on PAP (time 330 min, sesquihydrate): 61.3% and 74.8% and 53.0%
BP (absolute values) (time not given, 1st row after 310 min): 94 mmHg
BP (absolute values) [18]: 108 mmHg and 105 mmHg
PAP (absolute values) [18]: 25.3 mmHg and 29.1 mmHg and 22.5 mmHg
BP (absolute values) (time not given, 2nd row after 310 min): 97 mmHg
BP (absolute values) [19]: 108 mmHg and 105 mmHg
PAP (absolute values) [19]: 25.1 mmHg and 28.5 mmHg and 21.6 mmHg
BP (mean) (time −10 min, 375 μg/kg i.t.): 99 mmHg
BP (mean) [20]: 107 mmHg and 119 mmHg
PAP(mean) [20]: 42.0 mmHg and 36.4 mmHg and 37.5 mmHg
